The values below come from US5459152A, “Platelet activating factor antagonists” (Abbott Laboratories, priority 1993, dated 1995).

This assay addresses T1, PAF receptor (Oryctolagus cuniculus, UniProt G1TEI7).
T1 construct: platelet membranes where prepared by centrifugation and washing; tissue Pel-Freez (Rogers, AR) (whole rabbit blood); host or cells: rabbit platelet membranes
In words: PAF receptor binding assay ([3H]C18-PAF, rabbit platelet membranes). The note with it: read-out: PAF Receptor Binding Activity K1. The protocol: The ability of representative compounds of the present invention to inhibit PAF activity was determined in an in vitro test using the following method.
Citrated whole rabbit blood was obtained from Pel-Freez (Rogers, AR). Rabbit platelets where prepared by centrifugation and washing. The platelets where lysed by freeze-thawing and sonication; platelet membranes where prepared by centrifugation and washing. Final membrane preparations where stored frozen in 10 mM Tris/5 mM MgCl2 /2 mM EDTA (TME buffer, pH 7.0) with 0.25 M sucrose added for membrane stabilization.
The final volume of the assay was 100 μl. The assay was conducted in Millititre-GV™ (Millipore Corp.) filtration plates; incubation time was for 60 minutes at room temperature (22°-23° C.). "Specific binding" was operationally defined as the arithmetic difference between "total binding" of 0.6 nM [^3 H]C18 -PAF (in the absence of added PAF) and "nonspecific binding" (in the presence of 1 μM PAF). After the prescribed incubation, platelet membranes where filtered under vacuum and washed with 1 millilitre of "binding buffer". The filters was dried and removed. The bound radioactivity was quantitated with a Berthold TLC-Linear Analyzer model LB2842.
Experiments where repeated at least once.

Setting [1] is: inhibition of specific binding of 0.6 nM [3H]C18-PAF to rabbit platelet membranes, 60 min, room temperature, Ki calculated from IC50 by Cheng and Prusoff.

Where a name gives a salt, the structure may show the parent alone. Read-outs that look alike come from different tables or passages of the source. Where only a bound is given, the exact number is not on record here.

T1 sequence (G1TEI7 1-342): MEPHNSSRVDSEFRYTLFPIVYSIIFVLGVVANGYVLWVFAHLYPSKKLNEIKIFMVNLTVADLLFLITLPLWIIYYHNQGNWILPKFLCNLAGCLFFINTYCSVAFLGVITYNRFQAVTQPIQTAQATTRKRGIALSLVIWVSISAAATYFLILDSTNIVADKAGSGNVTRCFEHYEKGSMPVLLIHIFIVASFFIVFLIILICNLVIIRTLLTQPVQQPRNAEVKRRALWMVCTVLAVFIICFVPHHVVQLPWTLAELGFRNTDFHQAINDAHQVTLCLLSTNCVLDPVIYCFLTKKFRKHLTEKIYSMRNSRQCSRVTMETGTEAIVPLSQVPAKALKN

Consider `CN(C(=O)n1cc(C(=O)c2ccn3c2CSC3c2cccnc2)c2ccc(OCc3ccccc3)cc21)c1ccccc1` (stereo not drawn) [Example 20, 3-(Pyridin-3-yl)-7-(1-N-methyl-N-phenylcarbamoyl-6-phenylmethoxyindol-3-ylcarbonyl)-1H,3H-pyrrolo[1,2-c]thiazole], for which the Ki was found to be 180 nM.

Consider `CN(CO)C(=O)Cn1cc(C(=O)c2ccn3c2CSC3c2cccnc2)c2ccc(-c3ccc(F)cc3)cc21` (stereo not drawn) [Example 93], for which the Ki turned out to be 0.8 nM.

Regarding `O=C(c1ccn2c1COC2c1cccnc1)c1c[nH]c2ccccc12` (stereo not drawn) [Example 15, 3-(Pyridin-3-yl)-7-(indol-3-ylcarbonyl)-1H,3H-pyrrolo[1,2-c]oxazole], the Ki is 5600 nM.

For `CCS(=O)(=O)n1cc(C(=O)c2ccn3c2CSC3c2cccnc2)c2ccc(-c3ccc(F)cc3)cc21` (stereo not drawn) [Example 71, 3-(Pyridin-3-yl)-7-[1-ethanesulfonyl-6-[4-fluorophenyl)indol-3-ylcarbonyl]-1H,3H-pyrrolo[1,2-c]thiazole], the Ki worked out at 244 nM.

On to “3-(Pyridin-3-yl)-7-[1-N-sulfoethylcarbamoyl-6-(4-fluorophenyl)indol- 3-ylcarbonyl]-1H,3H-pyrrolo[1,2-c]thiazole [Example 100]”, for which, under setting [1], the Ki was greater than 300 nM.

Take `CN(C)C(=O)n1cc(C(=O)c2ccn3c2C(C)(C)SC3c2cccnc2)c2ccccc21` (stereo not drawn) [Example 19, 1,1-Dimethyl-3-(pyridin-3-yl)-7-(1-N,N-dimethylcarbamoyl-indol-3-ylcarbonyl)-1H,3H-pyrrolo[1,2-c]thiazole]: the Ki came out at 100 nM.

`NC(=O)n1cc(C(=O)c2ccn3c2CSC3c2cccnc2)c2ccc(OCc3ccccc3)cc21` (stereo not drawn) [Example 37, 3-(Pyridin-3-yl)-7-(1-carbamoyl-6-phenylmethoxyindol-3-ylcarbonyl)-1H,3H-pyrrolo[1,2-c]thiazole]: the Ki amounted to 10 nM.

Take `O=C(c1ccn2c1CSC2c1cccnc1)c1c[nH]c2ccc(OCc3ccccc3)cc12` (stereo not drawn) [Example 3, 3-(Pyridin-3-yl)-7-(5-phenylmethoxyindol-3-yl)carbonyl-1H,3H-pyrrolo[1,2-c]thiazole]: the Ki was 180 nM.

On to `CN(C)C(=O)n1cc(C(=O)c2ccn3c2CSC3c2ccc[n+]([O-])c2)c2ccc(-c3ccccc3)cc21` (stereo not drawn) [Example 34, 3-(1-Oxide-pyridin-3-yl)-7-(1-N,N-dimethylcarbamoyl-6-phenylindol-3-ylcarbonyl)-1H,3H-pyrrolo[1,2-c]thiazole], for which the Ki turned out to be 14 nM.

`COC(=O)n1cc(C(=O)c2ccn3c2CSC3c2cccnc2)c2ccc(OCc3ccccc3)cc21` (stereo not drawn) [Example 18]: the Ki was 35 nM.

`CN(C)C(=O)n1cc(C(=O)c2ccn3c2CSC3c2ccc[n+](C)c2)c2ccc(-c3ccccc3)cc21` (stereo not drawn) [Example 33, 3-(1-methylpyridin-3-yl)-7-(1-N,N-dimethylcarbamoyl-6-phenylindol-3-ylcarbonyl)-1H,3H-pyrrolo[1,2-c]thiazole]: the Ki worked out at 2800 nM.

In the case of “3-[Pyridin-3-yl)-7-(6-pyrimid-2-ylindol-3-ylcarbonyl)-1H,3H-pyrrolo[1,2-c]thiazole [Example 74]”, the Ki under setting [1] was 84 nM.

For the compound `COc1ccc(-c2ccc3c(C(=O)c4ccn5c4CSC5c4ccc[n+]([O-])c4)cn(C(=O)N(C)C)c3c2)cc1` (stereo not drawn) [Example 45, 3-(1-Oxide-pyridin-3-yl)-7-[1-N,N-dimethylcarbamoyl-6-(4-methoxyphenyl)indol-3-ylcarbonyl]-1H,3H-pyrrolo[1,2-c]thiazole], the Ki is 4.1 nM.

Turning to `CC(C)(C)OC(=O)NCCn1cc(C(=O)c2ccn3c2CSC3c2cccnc2)c2ccc(-c3ccc(F)cc3)cc21` (stereo not drawn) [Example 57], the Ki under setting [1] is 38 nM.

Take `O=C(c1ccn2c1CSC2c1cccnc1)c1c[nH]c2c(OCc3ccccc3)cccc12` (stereo not drawn) [Example 5, 3(Pyridin-3-yl)-7-(7-phenylmethoxyindol-3-yl)carbonyl-1H,3H-pyrrolo[1,2-c]thiazole]: the Ki is 90 nM.

`CC(C)(C)OC(=O)n1cc(C(=O)c2ccn3c2C[S+]([O-])C3c2cccnc2)c2ccccc21` (stereo not drawn) [Example 13, 2-Oxide-3-(pyridin-3-yl)-7-(1-tert-butyloxycarbonylindol-3-ylcarbonyl)-1H,3H-pyrrolo[1,2-c]thiazole]: the Ki was determined as 2200 nM.

Take `O=C(c1ccn2c1CSC2c1cccnc1)c1c[nH]c2cc(Br)ccc12` (stereo not drawn) [Example 63, 3-(Pyridin-3-yl)-7-(6-bromoindol-3-ylcarbonyl)-1H,3H-pyrrolo[1,2-c]thiazol]: the Ki came to 580 nM.

On to `CN(C)C(=O)n1cc(C(=O)c2ccn3c2CSC3c2ccc[n+]([O-])c2)c2ccc(-c3ccccc3)cc21` (stereo not drawn) [Example 54, 3-(1-Oxide-pyridin-3-yl)-7-(1-N,N-dimethylcarbamoyl-6-phenylindol-3-ylcarbonyl)-1H,3H-pyrrolo[1,2-c]thiazole hydrochloride], for which the Ki is 17 nM.

As to `NNC(=O)n1cc(C(=O)c2ccn3c2CSC3c2cccnc2)c2ccc(-c3ccc(F)cc3)cc21` (stereo not drawn) [Example 69, 3-(Pyridin-3-yl)-7-[1-hydrazinocarbonyl-6-(4-fluorophenyl)indol-3-ylcarbonyl]-1H,3H-pyrrolo[1,2-c]thiazole], the Ki stood at 25 nM.

With `COc1ccc(-c2ccc3c(C(=O)c4ccn5c4C(C)(C)SC5c4cccnc4)c[nH]c3c2)cc1` (stereo not drawn) [Example 25, 1,1-Dimethyl-3-(pyridin-3-yl)-7-[6-(4-methoxyphenyl)indol-3-ylcarbonyl]-1H,3H-pyrrolo[1,2-c]thiazole], the Ki came out at 272 nM.

Take `CN(C)C(=O)n1cc(C(=NNC(N)=O)c2ccn3c2CSC3c2cccnc2)c2ccc(-c3ccc(F)cc3)cc21` (stereo not drawn) [Example 106, 3-(pyridin-3-yl)-7-[1-N,N-dimethylcarbamoyl-6-(4-fluorophenyl)indol-3-ylcarbonylsemicarbazide]-1H,3H-pyrrolo[1,2-c]thiazole]: the Ki came out at 8 nM.

With `Cn1cc(C(=O)c2ccn3c2CSC3c2cccnc2)c2ccc(OCc3ccccc3)cc21` (stereo not drawn) [Example 21, 3-(Pyridin-3-yl)-7-(1-methyl-6-phenylmethoxyindol-3-ylcarbonyl)-1H,3H-pyrrolo[1,2-c]thiazole], the Ki amounted to 15 nM.

`CN(C)S(=O)(=O)n1cc(C(=O)c2ccn3c2CSC3c2ccc[n+]([O-])c2)c2ccc(-c3ccc(F)cc3)cc21` (stereo not drawn) [Example 60, 3-(1-Oxide-pyridin-3-yl)-7-[1-N,N-dimethylsulfamyl-6-(4-fluorophenyl)indol-3-ylcarbonyl]-1H,3H-pyrrolo[1,2-c]thiazole]: the Ki is 210 nM.

`CN(C)C(=O)n1cc(C(=O)c2ccn3c2CSC3c2cccnc2)c2ccc(-c3cccc(S(N)(=O)=O)c3)cc21` (stereo not drawn) [Example 80, 3-(Pyridin-3-yl)-7-[1-N,N-dimethylcarbamoyl-6-(3-aminosulfonylphenyl)indol-3-ylcarbonyl]-1H,3H-pyrrolo[1,2-c]thiazole]: the Ki under setting [1] was 45 nM.

Take `CNC(=O)n1cc(C(=O)c2ccn3c2CSC3c2cccnc2)c2ccc(OCc3ccccc3)cc21` (stereo not drawn) [Example 22, 3-(Pyridin-3-yl)-7-(1-N-methylcarbamoyl-6-phenylmethoxyindol-3-ylcarbonyl)-1H,3H-pyrrolo[1,2-c]thiazole]: the Ki stood at 9 nM.

`CCNC(=O)n1cc(C(=O)c2ccn3c2CSC3c2cccnc2)c2ccc(-c3ccc(F)cc3)cc21` (stereo not drawn) [Example 99]: the Ki came out at 19 nM.

With `O=C(c1ccn2c1CSC2c1ccc[n+]([O-])c1)c1cn(S(=O)(=O)c2ccccc2)c2cc(-c3ccc(F)cc3)ccc12` (stereo not drawn) [Example 73, 3-(1 -Oxide-pyridin-3-yl)-7-[1-phenylsulfonyl-6-(4-fluorophenyl)indol-3-ylcarbonyl]-1H,3-pyrrolo[1,2-c]thiazole], the Ki was determined as 211 nM.

Turning to `O=C(c1ccn2c1CSC2c1cccnc1)c1c[nH]c2cc(-c3ccccc3)ccc12` (stereo not drawn) [Example 10, 3-(Pyridin-3-yl)-7-(6-phenylindol-3-yl)carbonyl-1H,3H-pyrrolo[1,2-c]thiazole], the Ki came out at 95 nM.

As for `Cn1cc(C(=O)c2ccn3c2CSC3c2ccc[n+]([O-])c2)c2ccc(OCc3ccccc3)cc21` (stereo not drawn) [Example 58, 3-(1-Oxide-pyridin-3-yl)-7-(1-methyl-6-phenylmethoxyindol-3-ylcarbonyl)-1H,3H-pyrrolo[1,2-c]thiazole], the Ki was determined as 49 nM.

With `COc1cc(-c2ccc3c(C(=O)c4ccn5c4CSC5c4cccnc4)cn(C(=O)N(C)C)c3c2)cc(OC)c1OC` (stereo not drawn) [Example 48, 3-(Pyridin-3-yl)-7-[1-N,N-dimethylcarbamoyl-6-(3,4,5-trimethoxyphenyl)indol-3-ylcarbonyl]-1H,3H-pyrrolo[1,2-c]thiazole], the Ki came to 8 nM.

Regarding `CNC(=O)n1cc(C(=O)c2ccn3c2CSC3c2cccnc2)c2ccc(-c3ccccc3)cc21` (stereo not drawn) [Example 30, 3-(Pyridin-3-yl)-7-(1-N-methylcarbamoyl-6-phenylindol-3-ylcarbonyl)-1H,3H-pyrrolo[1,2-c]thiazole], the Ki turned out to be 135 nM.

For the compound `CN(C)C(=O)n1cc(C(=O)c2ccn3c2CSC3c2ccc[n+]([O-])c2)c2ccc(Cl)cc21` (stereo not drawn) [Example 66, 3-(1-Oxide-Pyridin-3-yl)-7-(1-N,N-dimethylcarbamoyl-6-chloroindol-3-ylcarbonyl)-1H,3H-pyrrolo[1,2-c]thiazole], the Ki is 38 nM.

As for `CC1(C)SC(c2cccnc2)n2ccc(C(=O)c3c[nH]c4ccccc34)c21` (stereo not drawn) [Example 17, 1,1-Dimethyl-3-(pyridin-3-yl)-7-(indol-3-ylcarbonyl)-1H,3H-pyrrolo[1,2-c]thiazole], the Ki came out at 1200 nM.
